Test results reported in PMC9220178, “Preclinical Characterization of Antioxidant Quinolyl Nitrone QN23 as a New Candidate for the Treatment of Ischemic Stroke” (Antioxidants, 2022).

Key:
[1] = tested on: adult male Wistar rats, four-vessel occlusion (4VO) transient forebrain ischemia; assay: Neurological deficit score (NDS) after global cerebral ischemia (4VO); format: in vivo, rat; conditions: R5d
Description: Transient forebrain ischemia was induced in adult male Wistar rats (10–12 weeks, Charles River, L’Arbresle, France) by the standard four-vessel occlusion (4VO) model previously described. Briefly, animals were anesthetized by intraperitoneal injection of a combination of ketamine, diazepam, and atropine (62.5, 5.0, and 0.25 mg/kg, respectively); positioned in a stereotactic device; and both vertebral arteries were cauterized. The next day, anesthesia was induced with 4% isoflurane and maintained at 2–2.5% isoflurane for carotid artery dissection. After anesthesia withdrawal, the carotid arteries were occluded with an atraumatic vascular clamp to induce brain ischemia. During the entire surgical procedure, temperature was monitored at 2 min intervals and kept at 37 °C. After 15 min of ischemia, the carotid arteries were unclamped for brain reperfusion. The animals were studied after 5 days of reperfusion (R5d), or after 11 weeks of reperfusion (long-term studies), and then they were euthanized under deep anesthesia. Animals from the sham control group were handled in the same way, but without occlusion of the carotid arteries. Ischemic animals were treated with vehicle solution (ethanol/polyethylene glycol 400/saline, 1:300:200 v/v), or with nitrones QN23 or NXY-059 in vehicle solution, as a single injection through the tail vein at the onset of reperfusion. For the therapeutic window experiments, the animals were also treated at reperfusion times 1, 3, and 6 h after ischemia. The treatments were prepared by an independent researcher and administered with concealed allocation. Treatments were administered in a randomized order obtained by a computer-based randomization program. […]
After 5 days of post-ischemic reperfusion (R5d), neurological deficits were evaluated in the animals by a researcher blind to the treatment allocation. General status and mobility impairments were quantified according to a scale previously validated in an entire cohort of R5d animals (n = 20). […]

[2] = tested on: adult male Wistar rats, four-vessel occlusion (4VO) transient forebrain ischemia; assay: Neuronal death by Fluoro-Jade B staining after transient global cerebral ischemia (4VO); format: in vivo, rat; conditions: for Neuroprotection (neuronal death, Fluoro-Jade B): vehicle = 0%
Description: (§1) Transient forebrain ischemia was induced in adult male Wistar rats (10–12 weeks, Charles River, L’Arbresle, France) by the standard four-vessel occlusion (4VO) model previously described. Briefly, animals were anesthetized by intraperitoneal injection of a combination of ketamine, diazepam, and atropine (62.5, 5.0, and 0.25 mg/kg, respectively); positioned in a stereotactic device; and both vertebral arteries were cauterized. The next day, anesthesia was induced with 4% isoflurane and maintained at 2–2.5% isoflurane for carotid artery dissection. After anesthesia withdrawal, the carotid arteries were occluded with an atraumatic vascular clamp to induce brain ischemia. During the entire surgical procedure, temperature was monitored at 2 min intervals and kept at 37 °C. After 15 min of ischemia, the carotid arteries were unclamped for brain reperfusion. The animals were studied after 5 days of reperfusion (R5d), or after 11 weeks of reperfusion (long-term studies), and then they were euthanized under deep anesthesia. Animals from the sham control group were handled in the same way, but without occlusion of the carotid arteries. Ischemic animals were treated with vehicle solution (ethanol/polyethylene glycol 400/saline, 1:300:200 v/v), or with nitrones QN23 or NXY-059 in vehicle solution, as a single injection through the tail vein at the onset of reperfusion. For the therapeutic window experiments, the animals were also treated at reperfusion times 1, 3, and 6 h after ischemia. The treatments were prepared by an independent researcher and administered with concealed allocation. Treatments were administered in a randomized order obtained by a computer-based randomization program. To determine the sample size, a power analysis (http://www.biomath.info/power/ttest.htm, accessed on 12 March 2020) with significance level set at 0.05 and statistical power set at 0.8 (80%) rendered a sample size of <6 subjects per group. A total of 120 ischemic animals (30 animals treated with vehicle, 60 treated with QN23, and 30 treated with NXY-059) and 9 sham control animals were included in these studies. Additionally, 13 animals were excluded from the study: 6 animals were not ischemic and 7 animals died within the 24 h after the surgical procedure (5 vehicles, 1 QN23-treated at 1.0 mg/kg, and 1 QN23-treated at 2.0 mg/kg). The Animal Care Ethics Committee of the Hospital Universitario Ramón y Cajal (Madrid, Spain) authorized all the procedures involving the animal experimentation reported here (authorization number 04/2020). These experiments were performed according to ARRIVE guidelines and the legislation on the protection of animals used for scientific purposes in Spain (RD 53/2013) and the EU (Directive 2010/63/EU). The study was designed and conducted according to the STAIR guidelines regarding physiological monitoring, sample randomization, predefined exclusion criteria, allocation concealment, blinded assessment of outcomes, dose–response definition, and a conflict-of-interest statement.
(§2) After 5 days of reperfusion (R5d), or at 11 weeks of reperfusion in long-term studies, animals were euthanized by transcardiac perfusion via the left ventricle under deep anesthesia. First, blood was washed out with 200 mL of ice-cold saline medium, followed by fixation with 4% (w/v) paraformaldehyde solution in PBS for brain preservation. Then, the brains were carefully removed from the cranial cavity and placed in 4% (w/v) paraformaldehyde solution in PBS overnight at 4 °C. The next day, the brains were sequentially placed in 10%, 20%, and 30% (w/v) sucrose in PBS until sunken, and finally embedded in Tissue-Tek O.C.T. (Sakura Finetek, Torrance, CA, USA) before freezing at −80 °C. Brain coronal sections containing the hippocampus region were obtained by cryostat sectioning at the level of interaural line +5.7 ± 0.2 mm on Real Capillary Gap microscope slides (Agilent Dako, Santa Clara, CA, USA). […]

[3] = tested on: carrageenan-induced rat paw edema; set-up: method as in PMID 30715875; conditions: cited from earlier work
[4] = Solubility studies for the injection vehicle; format: physicochemical; conditions: ethanol/saline, 1:9 v/v; highest concentrations (for doses up to 2.5 mg/kg)
Description: In the following section, we describe the effect of different doses of QN23 (1.0, 1.5, 2.0, and 2.5 mg/kg) administered intravenously (see Materials and Methods, Section 2.2). In order to explore this wider range of concentrations, solubility studies were carried out before the in vivo experiments in order to assess a proper pharmacological formulation. For the highest concentrations, QN23 was not soluble in our usual ethanolic vehicle (ethanol/saline, 1:9 v/v). After exploration of different formulations able to provide a safe injection method, we got the desired concentrations using a vehicle of ethanol, polyethylene glycol 400, and saline (1:300:200, v/v). Using this vehicle, animals were treated intravenously with QN23 concentrations of 1.0, 1.5, 2.0, and 2.5 mg/kg as a single injection at the onset of the reperfusion period after transient cerebral ischemia. After five days of recovery (R5d), neuronal death, apoptosis, and neurodeficit score were determined (Figure 1 and Figure 2).

[5] = tested on: experimental cerebral ischemia; set-up: method as in PMID 30715875; conditions: 1.5 mg/kg intraperitoneally; cited from earlier work
[6] = tested on: adult male Wistar rats, four-vessel occlusion (4VO) transient forebrain ischemia; assay: Neuronal apoptosis by TUNEL assay after transient global cerebral ischemia (4VO); format: in vivo, rat; conditions: for Neuroprotection (neuronal apoptosis, TUNEL): vehicle = 0%
Description: as §1, §2

[7] = 2.0 mg/kg i.v., CA1 and cortical regions, R5d, times tested 0, 1, 3, 6 h
[8] = cerebral cortex, 2.0 mg/kg i.v. at reperfusion onset, R5d
[9] = either CA1 or cortical region, i.v., from dose-response curve

For `COc1ccc2nc(Cl)c(/C=[N+](\[O-])C(C)(C)C)cc2c1` [QN23, (Z)-N-tert-Butyl-1-(2-chloro-6-methoxyquinolin-3-yl)methanimine Oxide], the “General status (neurological deficit score, NDS) compared with vehicle” value ([1]; 2.0 mg/kg i.v. at reperfusion onset) was “significant improvement”, the “Therapeutic window: administration time after reperfusion onset with significantly reduced NDS” value ([1]; 2.0 mg/kg i.v., times tested 0, 1, 3, 6 h) was “up to 3 h” and the “Therapeutic window: injection time after reperfusion onset with significantly decreased neuronal death” value [2, 7] was “up to 3 h”. The “Neuroprotection (neuronal death, Fluoro-Jade B)” value ([2]; cerebral cortex, 1.5 mg/kg i.v. at reperfusion onset, R5d) was 89.2%, the “Neuronal death compared with vehicle” value [2, 8] was “significantly reduced” and the “Neuroprotection (neuronal death, Fluoro-Jade B)” value [2, 8] was 89.5%. The “EC50 of neuroprotection, neuronal death assay” value [2, 9] was 0.3 mg/kg, the “Neuroprotection (neuronal death, Fluoro-Jade B)” value ([2]; hippocampal CA1, 1.5 mg/kg i.v. at reperfusion onset, R5d) was 22.6% and the “Neuroprotection (neuronal death, Fluoro-Jade B)” value ([2]; hippocampal CA1, 2.0 mg/kg i.v. at reperfusion onset, R5d) was 23.8%. For the same compound, the “Neuronal death compared with vehicle” value ([2]; hippocampal CA1, 2.0 or 2.5 mg/kg i.v. at reperfusion onset, R5d) was “significantly reduced”, the Anti-inflammatory activity [3] was “showed anti-inflammatory properties” and the “Solubility in ethanolic vehicle” value [4] was “not soluble”. The “Neuroprotective effect (neuronal death and neuronal apoptosis assays)” value [5] was “significant neuroprotective effect”, the “Therapeutic window: injection time after reperfusion onset with significantly reduced apoptosis-positive cells” value [6, 7] was “up to 3 h” and the “Neuroprotection (neuronal apoptosis, TUNEL)” value ([6]; CA1, 1.5 mg/kg i.v. at reperfusion onset, R5d) was 16.2%. The “Neuroprotection (neuronal apoptosis, TUNEL)” value ([6]; CA1, 2.0 mg/kg i.v. at reperfusion onset, R5d) was 27.8%, the “Number of apoptotic cells compared with vehicle” value ([6]; CA1 and cortical regions, 2.0 and 2.5 mg/kg i.v. at reperfusion onset, R5d) was “significant decrease” and the “Neuroprotection (neuronal apoptosis, TUNEL)” value ([6]; cortical region, 1.5 mg/kg i.v. at reperfusion onset, R5d) was 85.0%. For the same compound, the “Neuroprotection (neuronal apoptosis, TUNEL)” value ([6]; cortical region, 2.0 mg/kg i.v. at reperfusion onset, R5d) was 88.0% and the “EC50 of neuroprotection, TUNEL assay” value [6, 9] was 0.3 mg/kg.
